Laboratory results reported in paper PMC5849182, “Kallikrein-related peptidase 7 is a potential target for the treatment of pancreatic cancer” (Oncotarget, 2018).

Columns and labels:
PANC-1 cells [1] = test: RTCA cell migration assay; format: cell-based; conditions: KLK7 silenced PANC-1 cells, compared to BC and NC groups
Procedure: (§1) Cell migration assay was performed on RTCA xCELLigence DP (ACEA Biosciences). […] Migration was measured as the relative cell index change measured by the microelectronic sensors integrated into the bottom side of the membrane. Measurements were recorded every 15 min for 36 h.
(§2) The tested compound was added into the cell culture medium 3 h after PANC-1 cells were seeded. The cell prolifiation, migration and matrigel invasion was then assayed on RTCA.

PANC-1 cells [2] = test: RTCA matrigel invasion assay; format: cell-based; conditions: KLK7 silenced PANC-1 cells, compared to BC and NC groups
Procedure: (§3) Cell matrigel invasion assay was similar to the cell migration assay, except that the microporous membrane between the upper and lower chambers was coated by a thin layer of matrigel (BD Biosciences). After 36 h, cells on the bottom side were fixed in cold methanol, stained with 0.4% crystal violet, and photographed (5 random fields for each sample).
as §2

KLK7 = KLK7 expression in lentivirus-infected PANC-1 cells (real-time PCR and western blotting); format: cell-based, human; conditions: PANC-1 cells stably infected, compared to NC group
Text: A scrambled shRNA sequence was used as the negative control (LV-NC-shRNA, 5′-[…]-3′). The shRNA sequences were synthesized and cloned into recombinant shRNA expression vectors (pGLV3-H1-GFP-Puro). The resulted plasmids were verified by DNA sequencing.
PANC-1 and HepG2 cell lines were obtained from the Chinese Type Culture Collection Center (Wuhan, China). PANC-1 cells were maintained in dulbecco’s modified Eagle medium supplemented with 10% fetal bovine serum, 100 units/ml penicillin G sodium, and 100 μg/ml streptomycin sulphate. HepG2 cells were maintained in RPMI 1640 medium supplemented with 10% fetal bovine serum, 100 units/ml penicillin G sodium, and 100 μg/ml streptomycin sulphate. PANC-1 and HepG2 cells pro-treated by 5 μg/ml polybrene were infected with the lentivirus and stably infected cells were selected in cell culture medium containing 4 μg/ml puromycin (Sigma-Aldrich). […]
Western blotting assay was performed with cell lysates collected from stably transfected cells. Total protein concentrations were measured with the bicinchoninic assay (BCA). The sample proteins (20μg for each lane) were analyzed first in 12% SDS-PAGE and then transferred onto polyvinylidine difuorides membranes. […] The chemiluminescent data were collected and grayscale values were evaluated with Image J.

HepG2 cells = test: RTCA proliferation, migration and invasion of KLK7 silenced HepG2 cells; format: cell-based
Procedure: as §1, §3

5′-GCACUGAGUUAAUUAACUGUGUUUCAAGAGAACACAGUUAAUUAACUCAGUGCUU-3′ (expressed or natural sequence) [LV-hKLK7-shRNA-4, PANC-1 cells infected with it are named KD4]
Decrease of migration rate (PANC-1 cells [1]): about 85%
Invasion capacity (PANC-1 cells [2]): almost fully inhibited
Decrease of KLK7 expression (KLK7): around 90%
Effect on invasion of HepG2 cells (HepG2 cells): did not affect
Effect on migration of HepG2 cells (HepG2 cells): did not affect
